Data published in patent US20200061212A1, “SOLID ORAL COMPOSITION CONTAINING DYES” (COSMO TECHNOLOGIES LTD., priority 2016, published 2020).

Experiments:
[1] = test system: subjects undergoing screening or surveillance colonoscopy; experiment: Phase III placebo-controlled trial: Adenoma or Carcinoma detection rate and false positive rate at HD white light colonoscopy; type: in vivo, human; settings: for ADR: Difference in Proportions of Methylene Low Dose vs. Placebo: 100 mg; for ADR: Difference in Proportions of Methylene Full Dose vs. Methylene Blue Low Dose: 200 mg vs 100 mg; for False Positive Rate: subjects with excisions and without any histologically proven Adenoma or Carcinoma, %: % of subjects with excision
Source text: The detection rate was defined as the proportion of patients with at least one histologically proven Adenoma or Carcinoma.
In other words, in the study the standard of care (white light endoscopy) and the chromoendoscopy by oral administration of the MB tablets were compared. In the acquisition and recording of the colonoscopies, the latest and more technologically advanced, high definition (HD) endoscopes were used. Thus, the study allowed the direct comparison of the effect of the MB tablets on the adenoma or carcinoma detection rate to the current gold standard colonoscopy, i.e. the high definition (HD) white light colonoscopy. For this reason, in the context of the present example, the terms “placebo”, “white light high definition endoscopy” (WLHD) and “white light endoscopy” can be used interchangeably, and definitively indicate the current standard of care for the endoscopic examination of the colon. Due to the unavoidable impossibility to obtain double-blinding for the clinical study, since the endoscopist performing the colonoscopy was able to see if the colon was blue colored or unstained, an additional, underpowered, masking group was introduced. […] These patients had the colon stained in blue, but were not taken into account in the calculation of the study parameters. In this way, while performing the colonoscopy, the endoscopist was not aware if a patient belonged to the group of the full dose (whose patients were part of the statistical calculation) or to the “masking” group (whose patients received a lower dose of the composition and were not part of the statistical analysis).
Subjects aged between 50 and 75 years undergoing full colonoscopy for screening or surveillance of colorectal cancer were recruited.
Diet: In preparation for the colonoscopy patients adopted a low residue diet for three days prior to the colonoscopy. On the third day of the low residue diet patients must fast for at least 3 hours before starting intake of the bowel prep and study drug.
Bowel cleansing preparation: all subjects received a full dose regimen of 4 liters PEG-based bowel cleansing preparation starting in the late afternoon (after 6 pm) before the colonoscopy day. The subjects drank at least 250 mL of solution every 15 min, so that the intake of the cleansing preparation, and study drug were completed in 4 hours.
Dose regimen: The subjects were randomized 2:2:1 into three groups.
All the patients participating to the study, regardless of whether they belonged to Group one, Group two or Group three, received a timetable detailing the volumes of bowel cleansing preparation to be consumed, and the times to be respected:
The subjects had to drink about 250 mL of bowel cleansing preparation every 15 minutes, equivalent to 1 liter of bowel cleansing preparation every hour. The timeframe between an oral administration of tablets and the following one had to be 1 hour.
Adenoma was defined as a histologically proven Vienna Grade 3 to 4.2 or a histologically proven traditional serrated adenoma (TSA), or a histologically proven sessile serrated adenoma (SSA). Histologically proven Carcinoma was defined as Vienna Grade 4.3 to 5b.
Day of colonoscopy 02: patients returned to the clinic for the colonoscopy. The colonoscopy was performed using high definition (HD) colonoscope. Narrow-Band-Imaging (NBI) and all other electronic chromoendoscopy and contrast enhancement techniques, as well as zoom endoscopy or magnification were not permitted. The endoscopist performed the full colonoscopy and recorded and removed all the detected adenoma and/or carcinoma. The endoscopist recorded the morphology and size and classified the found polyps, adenomas and carcinomas, and recorded the pit pattern according to the Paris and Kudo's classification and following the endoscopy charter.

P-gp [2] = biological target: T1, P-gp (Homo sapiens, UniProt P08183); experiment: in vitro transporter inhibition study; type: in vitro ADME; settings: in vitro studies
T1 sequence (P08183 whole entry): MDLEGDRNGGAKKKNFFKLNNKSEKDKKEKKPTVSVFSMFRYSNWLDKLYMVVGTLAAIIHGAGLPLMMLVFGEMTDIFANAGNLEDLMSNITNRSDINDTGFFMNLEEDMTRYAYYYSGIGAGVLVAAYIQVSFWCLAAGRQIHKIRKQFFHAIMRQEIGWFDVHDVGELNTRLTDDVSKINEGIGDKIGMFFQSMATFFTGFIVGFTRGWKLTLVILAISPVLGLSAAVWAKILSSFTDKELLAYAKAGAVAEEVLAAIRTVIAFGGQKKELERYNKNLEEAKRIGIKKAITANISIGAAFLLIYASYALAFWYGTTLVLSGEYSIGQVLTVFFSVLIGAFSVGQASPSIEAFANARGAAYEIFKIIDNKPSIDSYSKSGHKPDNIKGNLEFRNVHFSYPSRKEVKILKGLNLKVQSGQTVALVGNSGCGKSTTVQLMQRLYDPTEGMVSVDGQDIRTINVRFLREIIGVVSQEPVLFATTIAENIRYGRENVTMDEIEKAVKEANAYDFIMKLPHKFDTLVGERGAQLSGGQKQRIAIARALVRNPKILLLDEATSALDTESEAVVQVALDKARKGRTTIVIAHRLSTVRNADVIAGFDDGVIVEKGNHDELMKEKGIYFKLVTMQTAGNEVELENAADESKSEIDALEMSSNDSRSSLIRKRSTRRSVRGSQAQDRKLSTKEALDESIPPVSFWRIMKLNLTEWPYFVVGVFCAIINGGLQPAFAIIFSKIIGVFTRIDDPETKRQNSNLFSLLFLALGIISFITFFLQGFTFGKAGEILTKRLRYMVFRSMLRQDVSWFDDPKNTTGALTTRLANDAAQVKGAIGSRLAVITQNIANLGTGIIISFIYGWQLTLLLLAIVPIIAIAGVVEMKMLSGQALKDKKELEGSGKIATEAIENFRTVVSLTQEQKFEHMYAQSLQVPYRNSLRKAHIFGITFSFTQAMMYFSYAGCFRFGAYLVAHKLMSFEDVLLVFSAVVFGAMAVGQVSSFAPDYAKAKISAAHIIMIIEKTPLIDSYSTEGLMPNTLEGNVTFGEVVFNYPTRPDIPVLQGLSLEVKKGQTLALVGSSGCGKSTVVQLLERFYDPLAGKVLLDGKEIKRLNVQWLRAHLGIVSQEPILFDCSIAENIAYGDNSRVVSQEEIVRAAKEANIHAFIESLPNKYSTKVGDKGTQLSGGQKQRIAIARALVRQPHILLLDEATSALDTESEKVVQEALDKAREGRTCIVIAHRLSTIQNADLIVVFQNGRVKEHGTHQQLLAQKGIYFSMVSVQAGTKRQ

P-gp [3] = biological target: T1, P-gp; experiment: in vitro transporter substrate study; type: in vitro ADME; settings: in vitro studies
[4] = low dose 100 mg, Per Protocol N=225
[5] = patients with number of excisions 0-1, FAS
[6] = patients with number of excisions 0-1, PP
[7] = patients with number of excisions ≤3, FAS
[8] = patients with number of excisions ≤3, PP

CN(C)c1ccc2nc3ccc(=[N+](C)C)cc-3sc2c1 [Methylene blue, Methylthioninium Chloride (Methylene Blue)]
ADR: Difference in Proportions of Methylene Low Dose vs. Placebo ([1]; FAS): 3.64
ADR: Difference in Proportions of Methylene Low Dose vs. Placebo ([1]; Per Protocol): 5.86
ADR: Difference in Proportions of Methylene Full Dose vs. Methylene Blue Low Dose ([1]; FAS): 4.84
ADR: Difference in Proportions of Methylene Full Dose vs. Methylene Blue Low Dose ([1]; Per Protocol): 4.46
ADR: Difference in Proportions of Methylene Blue Full Dose vs. Placebo ([1]; 200 mg, FAS): 8.48
Absolute difference in ADR between methylene blue full dose and placebo ([1]; 200 mg, FAS): 8.48%
Percent decrease in FPR for methylene full dose vs placebo ([1]; 200 mg, FAS): 21.6%
Percent increase in ADR for methylene full dose vs placebo ([1]; 200 mg, FAS): 17.7%
Percent decrease in FPR for methylene full dose vs placebo ([1]; 200 mg, PP): 24.8%
ADR: Difference in Proportions of Methylene Blue Full Dose vs. Placebo ([1]; 200 mg, Per Protocol): 10.32
Absolute difference in ADR between methylene blue full dose and placebo ([1]; 200 mg, Per Protocol): 10.32%
Percent increase in ADR for methylene blue full dose vs placebo ([1]; 200 mg, Per Protocol): 21.5%
Absolute difference in proportion of subjects between methylene blue full dose and placebo, Table 14 (non-polypoid lesions) ([1]; FAS): 8.83%
Absolute difference in proportion of subjects with diminutive adenomas between methylene blue full dose and placebo ([1]; FAS): 6.21%
Difference in False Positive Rates of Methylene Blue Full Dose vs. Methylene Blue Low Dose ([1]; FAS): −2.88
Difference in False Positive Rates of Methylene Blue Full Dose vs. Placebo ([1]; FAS): −6.44
Difference in False Positive Rates of Methylene Blue Low Dose vs. Placebo ([1]; FAS): −3.56
Percent increase in proportion of subjects for methylene blue full dose vs placebo, Table 14 (non-polypoid lesions) ([1]; FAS): 25.2%
Percent increase in proportion of subjects with diminutive adenomas for methylene blue full dose vs placebo ([1]; FAS): 20.1%
ADR, % ([1]; Number of excisions 0-1, low dose 100 mg, FAS): 20.83%
ADR, % ([1]; Number of excisions 4-6, full dose 200 mg, FAS): (85.06) %
ADR, % ([1]; Number of excisions 4-6, low dose 100 mg, FAS): 87.80%
ADR, % ([1]; Number of excisions >6, full dose 200 mg, FAS): (97.22) %
ADR, % ([1]; Number of excisions >6, low dose 100 mg, FAS): 100.00%
ADR, % ([1]; Number of excisions ≤3, low dose 100 mg, FAS): 38.12%
Difference in False Positive Rates of Methylene Blue Full Dose vs. Methylene Blue Low Dose ([1]; Per Protocol): −3.03
Difference in False Positive Rates of Methylene Blue Full Dose vs. Placebo ([1]; Per Protocol): −7.51
Difference in False Positive Rates of Methylene Blue Low Dose vs. Placebo ([1]; Per Protocol): −4.49
Absolute difference in proportion of subjects with a histologically proven adenoma between methylene blue full dose and placebo ([1]; excluding carcinoma, FAS): 9.33%
Percent increase in proportion of subjects with a histologically proven adenoma for methylene blue full dose vs placebo ([1]; excluding carcinoma, FAS): 20.3%
Percentage of subjects with a histologically proven adenoma (excluding carcinoma) ([1]; full dose 200 mg, FAS N=485): 55.26%
Percentage of subjects with diminutive adenomas ([1]; full dose 200 mg, FAS N=485): 37.11%
Percentage of subjects with non-polypoid lesions ([1]; full dose 200 mg, FAS N=485): 43.92%
Subjects with excision, % ([1]; full dose 200 mg, FAS N=485): (73.40) %
Total number of subjects with a histologically proven adenoma (excluding carcinoma) ([1]; full dose 200 mg, FAS N=485): 268
Total number of subjects with diminutive adenomas ([1]; full dose 200 mg, FAS N=485): 180
Total number of subjects with non-polypoid lesions ([1]; full dose 200 mg, FAS N=485): 213
ADR in patients with number of excisions 0-1 ([1]; full dose 200 mg, PP): 25.32%
ADR in patients with number of excisions ≤3 ([1]; full dose 200 mg, PP): 68.24%
Subjects with excision, % ([1]; full dose 200 mg, Per Protocol N=455): (75.38) %
Subjects with at least one histologically proven Adenoma or Carcinoma (ADR), % ([1]; low dose 100 mg (MB tablets of Example 6), FAS N=241): 51.45%
Subjects with excision, % ([1]; low dose 100 mg, FAS N=241): 69.71%
False Positive Rate: subjects with excisions and without any histologically proven Adenoma or Carcinoma, % ([1]; low dose 100 mg, FAS): 26.19%
Subjects with at least one histologically proven Adenoma or Carcinoma (ADR), % [1, 4]: 53.78%
Subjects with excision, % [1, 4]: 72.44%
False Positive Rate: subjects with excisions and without any histologically proven Adenoma or Carcinoma, % ([1]; low dose 100 mg, Per Protocol): 25.77%
Absolute difference in ADR between methylene blue full dose and placebo [1, 5]: 7.24%
Percent increase in ADR for methylene full dose vs placebo [1, 5]: 38.2%
Absolute difference in ADR between methylene blue full dose and placebo [1, 6]: 9.15%
Percent increase in ADR for methylene full dose vs placebo [1, 6]: 45.4%
Absolute difference in ADR between methylene blue full dose and placebo [1, 7]: 9.40%
Percent increase in ADR for methylene full dose vs placebo [1, 7]: 26.2%
Absolute difference in ADR between methylene blue full dose and placebo [1, 8]: 11.47%
Percent increase in ADR for methylene full dose vs placebo [1, 8]: 40.8%
inhibition of P-gp (P-gp [2]): weak inhibitor
induction of CYP isozyme 2B6 (CYP 2B6): induces
induction of CYP isozyme 1A2 (CYP 1A2): induces
substrate of the membrane transport protein P-gp (P-gp [3]): possible substrate
